Reference: patent publication US5627271A, “Glycolipids, their preparation and use” (Genzyme Limited, priority 1992, dated 1997)
Several values for one entry are separate records, joined by “and”; a condition that tells them apart may be missing. Equal values may be shown once. One block for each molecule: values may come before it.

Experiments:
α2-3 sialyltransferase = target: T1, α2-3 sialyltransferase (Sus scrofa, UniProt Q02745); experiment: Incorporation of radio-labelled CMP-NANA into glycolipid acceptors by α2-3 sialyltransferase; assay type: biochemical, porcine
T1 construct: from porcine liver; from tissue; host or cells: porcine liver
T1 sequence (Q02745 1-343): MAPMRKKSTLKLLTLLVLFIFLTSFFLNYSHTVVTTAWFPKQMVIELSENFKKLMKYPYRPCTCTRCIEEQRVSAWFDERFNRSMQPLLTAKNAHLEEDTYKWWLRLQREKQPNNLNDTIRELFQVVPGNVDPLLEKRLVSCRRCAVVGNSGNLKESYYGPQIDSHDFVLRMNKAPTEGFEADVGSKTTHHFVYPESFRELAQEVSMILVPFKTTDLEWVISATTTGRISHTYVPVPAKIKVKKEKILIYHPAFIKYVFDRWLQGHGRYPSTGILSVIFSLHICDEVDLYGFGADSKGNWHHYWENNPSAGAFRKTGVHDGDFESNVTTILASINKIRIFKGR
Description: (§1) Various glycolipids have been incubated with α2-3 and α2-6 sialyltransferases (from porcine and rat liver) in the presence of radio-labelled CMP-NANA. […] Other glycolipids could accept NANA, but in relatively low yields.
However, this transferase should be able to use glycolipid (54) as an acceptor.

α2-6 sialyltransferase = target: T2, α2-6 sialyltransferase (Rattus norvegicus, UniProt P13721); experiment: Incorporation of radio-labelled CMP-NANA into glycolipid acceptors by α2-6 sialyltransferase; assay type: biochemical
T2 construct: (from porcine and rat liver); from tissue; host or cells: rat liver
T2 sequence (P13721 1-403): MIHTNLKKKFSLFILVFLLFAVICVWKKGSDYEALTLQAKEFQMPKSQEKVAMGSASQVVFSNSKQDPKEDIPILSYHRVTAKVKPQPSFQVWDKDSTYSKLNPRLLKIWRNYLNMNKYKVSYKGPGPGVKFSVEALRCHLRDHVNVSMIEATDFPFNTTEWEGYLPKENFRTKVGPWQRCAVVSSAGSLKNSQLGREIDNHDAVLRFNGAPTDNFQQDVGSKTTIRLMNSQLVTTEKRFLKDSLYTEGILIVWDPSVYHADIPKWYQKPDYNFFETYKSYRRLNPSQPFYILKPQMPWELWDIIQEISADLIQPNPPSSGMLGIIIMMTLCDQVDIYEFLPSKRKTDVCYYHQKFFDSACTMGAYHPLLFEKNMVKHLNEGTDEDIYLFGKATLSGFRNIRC
Description: as §1

galactosyltransferase = experiment: Test as substrate for galactosyltransferase; assay type: biochemical, bovine; details: with and without the detergent Triton CF-54
Description: Compound (28): The acceptor (27) (16.5 mg, 31.2 μmol) was sonicated carefully for 15 min in 39 μl of 40 mM MnCl2, 93 μl of 50 mM NaN3, 102 μl and 330 μl of sodium cacodylate buffer pH 7.4 100 mM and 50 mM respectively. Then 35 μl of 2% BSA, 5.5 μl (5.5 U) of 1 U/μl calf intestinal alkaline phosphatase, 143 μl (1.92 U) of 6.7 U/500 μl UDP-Glc 4--epimerase, 29 μl (487 mU) of 8.4 U/500 μl galactosyl-transferase and 21.9 mg (37.9 μmol, 1.2 eq.) of UDP-Glc were added. The final concentrations were as follows: [Acceptor]=40 mM, [UDP-Glc]=49 mM, [MnCl2 ]=2 mM, [NAN3 ]=6 mM, [Sodium cacodylate]=50 mM.
The GlcNAc ceramide (40) has been tested as a substrate for the galactosyltransferase with and without the addition of the detergent Triton CF-54. No conversion was obtained.

[1] = target: T3, α1-3 fucosyl transferase VI (Homo sapiens, UniProt P51993); experiment: Test as substrate for α1-3 fucosyl transferase VI with radio-labelled GDP-[14C]fucose; assay type: biochemical; details: for Competition for incorporation of fucose into lipid (acceptor quality): 0.2 mM (28) with 0 to 2 mM N-acetyllactosamine; for Percentage of fucose transferred: 0.5 mU fucosyl transferase, 1 hour
T3 sequence (P51993 1-359): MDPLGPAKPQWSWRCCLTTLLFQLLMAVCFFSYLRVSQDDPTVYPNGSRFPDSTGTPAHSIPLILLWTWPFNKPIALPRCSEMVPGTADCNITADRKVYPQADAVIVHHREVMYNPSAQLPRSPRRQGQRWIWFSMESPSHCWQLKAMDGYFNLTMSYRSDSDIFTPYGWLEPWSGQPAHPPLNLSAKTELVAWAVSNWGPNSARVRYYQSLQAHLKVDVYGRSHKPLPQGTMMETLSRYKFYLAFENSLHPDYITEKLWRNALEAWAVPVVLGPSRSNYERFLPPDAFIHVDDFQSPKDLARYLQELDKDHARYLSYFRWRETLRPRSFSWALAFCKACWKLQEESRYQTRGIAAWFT
Description: The acceptor (28) was tested as a substrate for α1-3 fucosyl transferase VI, by incubation with the enzyme and radio-labelled GDP-[^14 C]fucose. The reaction conditions were: 45 mM Mes pH 6.5; 27 μM GDP-Fuc; 0.1% BSA; 0.1 mM NaCl; 5 mM MnCl2; 5 mM MgCl2; incubation at 37° C.). The reaction mixture was passed through a Sep-Pak C18 cartridge which was washed with 0.2M NaCl to ensure separation of all hydrophilic material. The lipid fraction was then eluted with MeOH. The incorporation of radioactivity into lipids was measured by scintillation counting.
In a first experiment, the transfer was monitored with time, using 0.2 mM (28) and 0.1 mU fucosyltransferase/100 μl incubation, and compared to a control incubation containing no acceptor. […] In a further experiment, but using 0.5 mU fucosyl transferase over 1 hour, the transfer of fucose was measured at 0.2, 1, 5 and 24 mM concentrations of (28). The percentage of fucose transferred was respectively about 50%, 60%, 65% and 70%.
Competition experiments were also carried out, using 0.2 mM acceptor (28), in the presence of various concentrations (0 to 2 mM) of N-acetyllactosamine which is a known substrate for the enzyme. The samples were analysed as before, for incorporation of fucose into lipid.

[2] = acceptor conc. 12 mM, bracketed numbers are background

SMILES: CCCCCCCCCCCCC/C=C/[C@@H](O)[C@@H](N)CO[C@@H]1O[C@H](CO)[C@@H](O[C@@H]2O[C@H](CO)[C@H](O)[C@H](O)[C@H]2O)[C@H](O)[C@H]1O [(1)]
α2-3ST yield (%) of incorporation of radio-labelled CMP-NANA (α2-3 sialyltransferase; acceptor conc. 12 mM): 1.5%
α2-3ST yield (%) of incorporation of radio-labelled CMP-NANA (α2-3 sialyltransferase; acceptor conc. 100 mM): 2.4% and 2.5%

SMILES: CCCCCCCCCCCCC/C=C/[C@@H](O)[C@H](CO[C@@H]1O[C@H](CO)[C@@H](O)[C@H](O)[C@H]1NC(C)=O)NC(=O)CCCCCCCCCCCCCCCCCCCCCCC [(40), GlcNAc ceramide]
Conversion (galactosylation) by galactosyltransferase (galactosyltransferase): No conversion

SMILES: CC(=O)N[C@H]1C(O)O[C@H](CO)[C@@H](O[C@@H]2O[C@H](CO)[C@H](O)[C@H](O)[C@H]2O)[C@@H]1O (stereo partly drawn) [N-acetyllactosamine, reference compound]
Competition for incorporation of fucose into lipid (acceptor quality) [1]: similarly good acceptors

SMILES: CCCCCCCCCCCCC/C=C/[C@@H](O)[C@H](CO[C@@H]1O[C@H](CO)[C@@H](O[C@@H]2O[C@H](CO)[C@H](O)[C@H](O)[C@H]2O)[C@H](O)[C@H]1O)NC(=O)CCCCCCCCCCCCCCCCC [lactosyl-ceramide, Lactosylceramide, reference compound]
α2-6 ST yield (%) of incorporation of radio-labelled CMP-NANA (α2-6 sialyltransferase; acceptor conc. 43 mM): 2.7%
Transfer by α2-3 sialyltransferase / acceptor substrate (in words) (α2-3 sialyltransferase; α2-3 sialyltransferase from porcine liver): not an acceptor substrate

More lines, main results first:

α2-6 ST yield (%) of incorporation of radio-labelled CMP-NANA (α2-6 sialyltransferase; [2]): 2.9% and 2.8%
α2-3ST yield (%) of incorporation of radio-labelled CMP-NANA (α2-3 sialyltransferase; acceptor conc. 100 mM): 2.5%
SMILES: CCCCCCCCCCCCC/C=C/[C@@H](O)[C@H](CO[C@@H]1O[C@H](CO)[C@@H](O[C@@H]2O[C@H](CO)[C@H](O)[C@H](O)[C@H]2O)[C@H](O)[C@H]1O)N=[N+]=[N-] [(20)]

Conversion (galactosylation) by galactosyltransferase (galactosyltransferase): galactosylated
SMILES: CCCCCCCCCCCCC/C=C/[C@@H](O)[C@H](CO[C@@H]1O[C@H](CO)[C@@H](O)[C@H](O)[C@H]1NC(C)=O)N=[N+]=[N-] [(27)]

Competition for incorporation of fucose into lipid (acceptor quality) [1]: similarly good acceptors
Percentage of fucose transferred ([1]; 0.2 mM acceptor): about 50%
Percentage of fucose transferred ([1]; 1 mM acceptor): ~60%
Percentage of fucose transferred ([1]; 5 mM acceptor): ~65%
Percentage of fucose transferred ([1]; 24 mM acceptor): ~70%
α2-6 ST yield (%) of incorporation of radio-labelled CMP-NANA (α2-6 sialyltransferase; acceptor conc. 6 mM, bracketed numbers are background): 22.2%
α2-6 ST yield (%) of incorporation of radio-labelled CMP-NANA (α2-6 sialyltransferase; [2]): 23.2%
α2-6 ST yield (%) of incorporation of radio-labelled CMP-NANA (α2-6 sialyltransferase; acceptor conc. 50 mM, bracketed numbers are background): 47.0%
α2-6 ST yield (%) of incorporation of radio-labelled CMP-NANA (α2-6 sialyltransferase; acceptor conc. 100 mM, bracketed numbers are background): 59.8%
α2-3ST yield (%) of incorporation of radio-labelled CMP-NANA (α2-3 sialyltransferase; acceptor conc. 6 mM): 1.1%
α2-3ST yield (%) of incorporation of radio-labelled CMP-NANA (α2-3 sialyltransferase; acceptor conc. 100 mM): 1.5% and 1.2%
SMILES: CCCCCCCCCCCCC/C=C/[C@@H](O)[C@H](CO[C@@H]1O[C@H](CO)[C@@H](O[C@@H]2O[C@H](CO)[C@H](O)[C@H](O)[C@H]2O)[C@H](O)[C@H]1NC(C)=O)N=[N+]=[N-] [(28)]
Incorporation of label into lipid monitored with time ([1]; 0.2 mM acceptor, 0.1 mU fucosyltransferase/100 μl, vs control without acceptor): incorporation of label into lipid above background
